*1 amine or outer side, *2 acyl side, *3 side chain or, on linkers, in order; H or OH if unused. Where a SMILES comes first, the peptide text is derived from it. Side-chain parts run from the residue outwards. The star is where a group is joined. C18 diacid = O=C(O)CCCCCCCCCCCCCCCCC(=O)*; γGlu = O=C(O)[C@H](CCC(=O)[*:2])N[*:1]; Isovaleryl = CC(C)CC(=O)*; AEEA = NCCOCCOCC(=O)O
Target: T1, Human Neuropeptide Y2 Receptor (Homo sapiens, UniProt P49146)
T1 construct: purchased CHEMICON HTS066M
T1 sequence (P49146 1-381): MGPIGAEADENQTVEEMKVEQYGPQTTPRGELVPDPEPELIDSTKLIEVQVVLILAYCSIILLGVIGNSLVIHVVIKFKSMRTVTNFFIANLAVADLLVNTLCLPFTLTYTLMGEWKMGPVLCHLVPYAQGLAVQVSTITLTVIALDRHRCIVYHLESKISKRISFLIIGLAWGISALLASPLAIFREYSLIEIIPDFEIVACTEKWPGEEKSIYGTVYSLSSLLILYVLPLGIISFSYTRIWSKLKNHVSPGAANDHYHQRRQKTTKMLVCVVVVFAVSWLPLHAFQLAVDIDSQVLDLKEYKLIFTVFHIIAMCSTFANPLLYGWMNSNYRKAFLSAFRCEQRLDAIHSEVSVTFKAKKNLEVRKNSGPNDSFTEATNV
Experiment: Radioligand binding competition assay (RLB)
Details: Table 3; human 125I-PYY (1-36) 0.02 nM, Y2 receptor membranes; read-out: Ki
Experimental: The filtration RLB assay was carried out in 96-well plates in a final volume of 100 μl per well. Freeze-dried test peptides were dissolved in 100% dimethyl sulfoxide (DMSO) to stock solutions of 1 mM and serial dilutions were performed in assay buffer (50 mM HEPES, 5 mM MgCl2, 1 mM CaCl2), pH 7.4) containing 0.2% ovalbumin. […] Next, 80 μL membranes (HTS066M, ChemiSCREEN™ Human Neuropeptide Y2 Receptor Membrane Preparation, CHEMICON) were added to each well to give a final protein concentration of 0.5 μg/well. The plates were sealed and incubated at room temperature for 2 hours in a plate shaker set at 400 rpm. The incubation was stopped by vacuum filtration onto 0.5% poly-ethylene amine (PEI) presoaked GF/C filters using a 96-well FilterMate™ harvester (Perkin Elmer) followed by four washes with 300 μl/well ice-cold wash buffer (50 mM HEPES, 500 mM NaCl, pH7.4). Filter plates were then dried for 60 min at room temperature and the bottom of the plates was sealed with backing tape UniFilter-96. Finally, 50 μl/well scintillation counter cocktail (Microscint20, Packard) was added and the radioactivity was counted in the Packard TopCount NXT scintillation counter. IC50 values (the half maximal inhibitory concentration of the agonist) were calculated by nonlinear regression analysis of sigmoidal dose-response curves.

| Ki [nM] | SMILES |
| --- | --- |
| 2.5 | CC(C)CC(=O)N[C@@H](C)C(=O)N1CCC[C@H]1C(=O)N[C@@H](CCC(=O)O)C(=O)N[C@@H](CCCCNC(=O)COCCOCCNC(=O)COCCOCCNC(=O)CC[C@H](NC(=O)CCCCCCCCCCCCCCCCC(=O)O)C(=O)O)C(=O)N1CCC[C@H]1C(=O)N[C@@H](CCC(=O)O)C(=O)N[C@@H](CCC(=O)O)C(=O)N[C@@H](CC(=O)O)C(=O)N[C@@H](C)C(=O)N[C@@H](CCC(N)=O)C(=O)N1CCC[C@H]1C(=O)N[C@@H](CCC(=O)O)C(=O)N[C@@H](CCC(=O)O)C(=O)N[C@@H](CC(C)C)C(=O)N[C@@H](CCC(N)=O)C(=O)N[C@@H](CCC(=O)O)C(=O)N[C@@H](Cc1ccc(O)cc1)C(=O)N[C@@H](Cc1ccc(O)cc1)C(=O)N[C@H](C(=O)N[C@@H](CO)C(=O)N[C@@H](CC(C)C)C(=O)N[C@@H](CCCNC(=N)N)C(=O)N[C@@H](Cc1c[nH]cn1)C(=O)N[C@@H](Cc1ccc(O)cc1)C(=O)N[C@@H](Cc1ccc(O)cc1)C(=O)N[C@@H](CC(N)=O)C(=O)N[C@@H](Cc1c[nH]c2ccccc12)C(=O)N[C@@H](CC(C)C)C(=O)N[C@H](C(=O)N[C@@H](CCCNC(=N)N)C(=O)N[C@@H](CCC(N)=O)C(=O)N[C@@H](CCCNC(=N)N)C(=O)N[C@@H](Cc1ccc(O)cc1)C(N)=O)[C@@H](C)O)C(C)C [Compound 1, N{alpha-4}-(3-methylbutanoyl)-N{epsilon-7}-[2-(2-{2-[2-(2-{2-[(4S)-4-carboxy-4-(17-carboxyheptadecanamido)butanamido]ethoxy}ethoxy)acetamido]ethoxy}ethoxy)acetamido]-[4A,7K,9E,13Q,18Q,19E,22V,28Y,30W,31L]hPYY (4-36)] (Isovaleryl-APEK([AEEA-AEEA-γGlu-C18 diacid])PEEDAQPEELQEYYVSLRHYYNWLTRQRY-NH2) |
| 1.43 | CC(C)CC(=O)N[C@@H](C)C(=O)N1CCC[C@H]1C(=O)N[C@@H](CCC(=O)O)C(=O)N[C@@H](CCCCNC(=O)COCCOCCNC(=O)COCCOCCNC(=O)CC[C@H](NC(=O)CCCCCCCCCCCCCCCCC(=O)O)C(=O)O)C(=O)N1CCC[C@H]1C(=O)N[C@@H](CCC(=O)O)C(=O)N[C@@H](CCC(=O)O)C(=O)N[C@@H](CC(=O)O)C(=O)N[C@@H](C)C(=O)N[C@@H](CO)C(=O)N1CCC[C@H]1C(=O)N[C@@H](CCC(=O)O)C(=O)N[C@@H](CCC(=O)O)C(=O)N[C@@H](CC(C)C)C(=O)N[C@@H](CCC(N)=O)C(=O)N[C@@H](CCCNC(=N)N)C(=O)N[C@@H](Cc1ccc(O)cc1)C(=O)N[C@@H](Cc1ccc(O)cc1)C(=O)N[C@H](C(=O)N[C@@H](CO)C(=O)N[C@@H](CC(C)C)C(=O)N[C@@H](CCCNC(=N)N)C(=O)N[C@@H](Cc1c[nH]cn1)C(=O)N[C@@H](Cc1ccc(O)cc1)C(=O)N[C@@H](Cc1ccc(O)cc1)C(=O)N[C@@H](CC(N)=O)C(=O)N[C@@H](Cc1c[nH]c2ccccc12)C(=O)N[C@@H](CC(C)C)C(=O)N[C@@H](CCC(N)=O)C(=O)N[C@@H](CCCNC(=N)N)C(=O)N[C@@H](CCC(N)=O)C(=O)N[C@@H](CCCNC(=N)N)C(=O)N[C@@H](Cc1ccc(O)cc1)C(N)=O)C(C)C [Compound 4, N{alpha-4}-(3-methylbutanoyl)-N{epsilon-7}-[2-(2-{2-[2-(2-{2-[(4S)-4-carboxy-4-(17-carboxyheptadecanamido)butanamido]ethoxy}ethoxy)acetamido]ethoxy}ethoxy)acetamido]-[4A,7K,9E,18Q,22V,28Y,30W,31L,32Q]hPYY (4-36)] |
